Assay results from ChEMBL document CHEMBL4411295, “Discovery of novel nonsteroidal VDR agonists with novel diarylmethane skeleton for the treatment of breast cancer” (Eur J Med Chem, 2019).
Calls of active or inactive are those of the source. The calls are words filed in the database; no cut-off is given here.

Assays:
[1] = tested on: MCF7; experiment: Induction of apoptosis in human MCF7 cells assessed as late apoptotic cells at 1 uM after 48 hrs by Annexin V-FITC/propidium iodide staining-based flow cytometric analysis (reference value: 1.61%); type: functional
[2] = tested on: MCF7; experiment: Induction of apoptosis in human MCF7 cells assessed as viable cells at 1 uM after 48 hrs by Annexin V-FITC/propidium iodide staining-based flow cytometric analysis (reference value: 94.3%); type: functional; conditions: MCF7, 48 h, read-out: Activity
[3] = tested on: MCF7; experiment: Cell cycle arrest in human MCF7 cells assessed as accumulation at G2/M phase at 1 uM after 24 hrs by propidium iodide staining based flow cytometric analysis (reference value: 12.04%); type: functional
[4] = tested on: MCF7; experiment: Cell cycle arrest in human MCF7 cells assessed as accumulation at S phase at 1 uM after 24 hrs by propidium iodide staining based flow cytometric analysis (reference value: 31.32%); type: functional
[5] = tested on: MCF7; experiment: Induction of apoptosis in human MCF7 cells assessed as necrotic cells at 1 uM after 48 hrs by Annexin V-FITC/propidium iodide staining-based flow cytometric analysis (reference value: 0.29%); type: functional
[6] = tested on: MCF7; experiment: Induction of apoptosis in human MCF7 cells assessed as early apoptotic cells at 1 uM after 48 hrs by Annexin V-FITC/propidium iodide staining-based flow cytometric analysis (reference value: 3.80%); type: functional
[7] = tested on: MCF7; experiment: Cell cycle arrest in human MCF7 cells assessed as accumulation at G0/G1 phase at 1 uM after 24 hrs by propidium iodide staining based flow cytometric analysis (reference value: 56.64%); type: functional
[8] = molecular target: T1, Vitamin D3 receptor (Homo sapiens) (UniProt P11473); experiment: Binding affinity at VDR (unknown origin) assessed as relative VDR-probe inhibition at 1 uM by fluorescence polarization assay relative to 1,25(OH)2D3
T1 sequence (whole entry): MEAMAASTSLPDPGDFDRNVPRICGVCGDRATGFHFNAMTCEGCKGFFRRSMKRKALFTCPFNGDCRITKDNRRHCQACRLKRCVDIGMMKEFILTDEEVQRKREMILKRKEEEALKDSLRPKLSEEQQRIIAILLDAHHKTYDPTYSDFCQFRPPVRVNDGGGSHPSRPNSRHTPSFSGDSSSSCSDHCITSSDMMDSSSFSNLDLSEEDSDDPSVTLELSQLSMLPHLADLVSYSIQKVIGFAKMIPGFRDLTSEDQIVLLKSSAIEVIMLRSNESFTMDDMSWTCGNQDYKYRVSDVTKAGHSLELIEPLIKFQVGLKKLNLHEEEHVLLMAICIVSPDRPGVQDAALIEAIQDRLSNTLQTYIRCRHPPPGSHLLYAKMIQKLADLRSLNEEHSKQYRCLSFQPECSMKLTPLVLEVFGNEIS

[9] = tested on: MCF7; experiment: Antiproliferative activity against human MCF7 cells after 24 hrs by MTT assay; type: functional, cell-based; conditions: MCF7, 24 h
[10] = tested on: MCF7; experiment: Induction of apoptosis in human MCF7 cells assessed as increase in Bax expression at 0.5 uM after 24 hrs by qPCR analysis; type: functional, cell-based
[11] = tested on: MCF7; experiment: Induction of apoptosis in human MCF7 cells assessed as reduction in Bcl2 expression at 0.5 uM after 24 hrs by qPCR analysis; type: functional, cell-based
[12] = tested on: MCF7; experiment: Induction of apoptosis in human MCF7 cells assessed as increase in p21 level at 0.5 uM after 24 hrs by Western blot analysis; type: functional, cell-based
[13] = tested on: MCF7; experiment: Induction of apoptosis in human MCF7 cells assessed as reduction in Bcl2 level at 0.5 uM after 24 hrs by Western blot analysis; type: functional, cell-based
[14] = tested on: MCF7; experiment: Induction of apoptosis in human MCF7 cells assessed as increase in p21 expression at 0.5 uM after 24 hrs by qPCR analysis; type: functional, cell-based
[15] = tested on: MCF7; experiment: Induction of apoptosis in human MCF7 cells at 0.5 uM after 48 hrs by Annexin V-FITC/propidium iodide staining-based flow cytometric analysis; type: functional, cell-based
[16] = tested on: MCF7; experiment: Induction of apoptosis in human MCF7 cells assessed as increase in Bax level at 0.5 uM after 24 hrs by Western blot analysis; type: functional, cell-based
[17] = tested on: L02; experiment: Cytotoxicity against human LO2 cells assessed as reduction in cell viability after 24 hrs by MTT assay; type: cell-based; conditions: L02, 24 h
[18] = tested on: Mus musculus; experiment: Hypercalcemic effect in BALB/C nude mouse xenografted with human MCF7 cells at 0.5 ug/kg, ip administered 3 times per week measured after 15 days; type: ADME, organism-based; conditions: in vivo, 0.0005 mg/kg, 360 h
[19] = tested on: MCF7; experiment: Antitumor activity against human MCF7 cells xenografted in BALB/C nude mouse assessed as reduction in tumor volume at 0.5 ug/kg, ip administered 3 times per week; type: functional, organism-based

inhibition [8] [%]	SMILES	Activity [10]	Activity [11]	Activity [12]	Activity [13]	Activity [14]	Activity [16]	also measured
44.2	CCN(CC)CCNC(=O)c1cc(C(CC)(CC)c2ccc(C#CC3(O)CCCCC3)c(C)c2)cn1CC							IC50 [9]: 3.07 µM
63.4	CCN(CC)CCNC(=O)c1ccc(C(CC)(CC)c2ccc(C#CC(C)(O)CC)c(C)c2)n1CC (configuration not stated)	Active	Active	Active	Active	Active	Active	Activity [15]: Active
49.3	CCN(CC)CCNC(=O)c1cc(C(CC)(CC)c2ccc(C#CC3(O)CCC3)c(C)c2)cn1CC	Active	Active	Active	Active	Active	Active	IC50 [17]: > 50 µM; IC50 [9]: 1.28 µM
51.1	CCCC(O)(C#Cc1ccc(C(CC)(CC)c2cc(C(=O)NCCN(CC)CC)n(CC)c2)cc1C)CCC	Active	Active	Active	Active	Active	Active	
56.3	CCN(CC)CCNC(=O)c1cc(C(CC)(CC)c2ccc(C#CC(C)(C)O)c(C)c2)cn1CC							

The next lines start with the compound.

SMILES	inhibition [8] [%]	Activity [10]	Activity [11]	Activity [12]	Activity [13]	Activity [14]	Activity [16]	also measured
C=C1/C(=C\C=C2/CCC[C@]3(C)[C@@H]([C@H](C)/C=C/[C@@H](O)C4CC4)CC[C@@H]23)C[C@@H](O)C[C@@H]1O [CALCIPOTRIENE]								Activity [1]: 3.77%; viability at 1 µM [2]: 80.8%; Activity [3]: 12.55%; Activity [4]: 24.45%; Activity [5]: 0.31%; Activity [6]: 15.1%; Activity [7]: 63%
CCN(CC)CCNC(=O)c1ccc(C(CC)(CC)c2ccc(C#CC(C)(C)O)c(C)c2)n1CC	60.2	Active	Active	Active	Active	Active	Active	
CCCC(O)(C#Cc1ccc(C(CC)(CC)c2ccc(C(=O)NCCN(CC)CC)n2CC)cc1C)CCC	52.1							
CCN(CC)CCNC(=O)c1cc(C(CC)(CC)c2ccc(C#CC(C)(O)CC)c(C)c2)cn1CC (configuration not stated)	59.2							
C=C1/C(=C\C=C2/CCC[C@]3(C)[C@@H]([C@H](C)CCCC(C)(C)O)CC[C@@H]23)C[C@@H](O)C[C@@H]1O [CALCITRIOL]								Activity [1]: 3.88%; viability at 1 µM [2]: 81.8%; Activity [3]: 4.11%; Activity [4]: 25.56%; Activity [5]: 0.4%; Activity [18]: Toxic; Activity [6]: 14%; Activity [7]: 70.33%; Activity [19]: inactive
